Measurements as given in patent US20250114460A1, “NOVEL PLK1 DEGRADATION INDUCING COMPOUND” (UPPTHERA, INC., priority 2021, published 2025).

How the values were obtained:
Format in all cases: cell-based
NCI-H526 cell line = assay: Cell viability assay for H526 cell (EZ-Cytox); settings: Homo sapiens, NCI-H526, 120 h; H526 cells, 5 days, 3000 nM to 0.46 nM
How it was run: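 Read-out was EZ-Cytox colorimetric absorbance at 450 nm, taken after brief plate shaking, with IC50 derived. Before reading, H526 cells had been cultured with test compound for 5 days.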

MRC-5 cell line = assay: Cell viability assay for MRC-5 cell line (EZ-Cytox); settings: Homo sapiens, MRC5, 120 h; MRC-5 normal cell line, 5 days, 10000 nM to 1.52 nM; N.D. = no cytotoxicity until 10 μM; read-out: Activity: IC50 value of Exemplary Compound to MRC-5 cell line
Experimental: 4. Cell Viability Assay for MRC-5 Cell Line
(1) Culture of MRC-5 Cell Line
Passage of cultured cells was maintained within P15.
(2) Treatment of Compounds of the Present Invention
Then, it was cultured in 37° C.
(3) Cytotoxicity Experiment
CO2 incubator for 4 hours.

PLK1 = biological target: T1, PLK1 (Homo sapiens, UniProt P53350); assay: Luciferase assay for PLK1 in HeLa LgBit (Plk1-HiBit KI) cell line; settings: 300 nM compound, luminescence after 9 hours
T1 construct: endogenous in cells; host or cells: HeLa LgBit (Plk1-HiBit KI): HeLa stably expressing LgBit, with a CRISPR/Cas9 knock-in of HiBit at the endogenous PLK1 locus
How it was run: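 Luminescence, followed in real time after adding compound at 300 nM and Endurazine substrate, is reported relative to DMSO-treated wells. Cells are a HeLa LgBit line with a Plk1-HiBit knock-in, synchronized by 2 mM thymidine for 24 h, released, and cultured 18 h before treatment.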

T1 sequence (P53350 whole entry): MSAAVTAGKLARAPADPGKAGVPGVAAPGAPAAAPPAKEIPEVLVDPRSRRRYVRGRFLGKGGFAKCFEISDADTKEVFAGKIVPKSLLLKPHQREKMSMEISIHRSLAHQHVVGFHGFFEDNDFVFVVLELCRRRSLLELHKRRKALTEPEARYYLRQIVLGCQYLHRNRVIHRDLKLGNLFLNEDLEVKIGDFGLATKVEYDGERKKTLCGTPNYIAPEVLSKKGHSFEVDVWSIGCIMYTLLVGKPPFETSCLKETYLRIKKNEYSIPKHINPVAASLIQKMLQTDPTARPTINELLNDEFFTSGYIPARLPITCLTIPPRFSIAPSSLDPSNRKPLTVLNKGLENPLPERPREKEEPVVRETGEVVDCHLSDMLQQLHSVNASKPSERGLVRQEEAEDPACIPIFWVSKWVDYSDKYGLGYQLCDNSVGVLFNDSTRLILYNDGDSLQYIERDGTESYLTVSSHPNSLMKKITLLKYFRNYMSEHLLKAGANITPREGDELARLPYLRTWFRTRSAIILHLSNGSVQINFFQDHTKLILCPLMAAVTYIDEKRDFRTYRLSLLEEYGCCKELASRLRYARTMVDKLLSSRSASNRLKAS

| SMILES | IC50 (NCI-H526 cell line) [µM] | IC50 (MRC-5 cell line) [µM] | Activity: ratio of the luminescense value of each Exemplary Compound treatment group to DMSO treatment group (PLK1) |
| --- | --- | --- | --- |
| COc1cc(C(=O)NC2CCN(C(=O)CCN3CCN(c4cccc5c4C(=O)N(C4CCC(=O)NC4=O)C5=O)CC3)CC2)c(C(F)(F)F)cc1Nc1ncc2c(n1)N(C1CCCC1)CC(F)(F)C(=O)N2C (stereo not drawn) [Compound 119, 4-((9-cyclopentyl-7,7-difluoro-5-methyl-6-oxo-6,7,8,9-tetrahydro-5H-pyrimido[4,5-b][1,4]diazepin-2-yl)amino)-N-(1-(3-(4-(2-(2,6-dioxopiperidin-3-yl)-1,3-dioxoisoindolin-4-yl)piperazin-1-yl)propanoyl)piperidin-4-yl)-5-methoxy-2-(trifluoromethyl) benzamide] | < 0.2 | > 10 | ++ (++<0.6) |
| COc1cc(C(=O)NC2CCN(C(=O)CCN3CCN(c4cccc5c4C(=O)N(C4CCC(=O)NC4=O)C5=O)CC3)CC2)ccc1Nc1ncc2c(n1)N(C1CCCC1)CC1(CC1)C(=O)N2C (stereo not drawn) [Compound 120, 4-((9′-cyclopentyl-5′-methyl-6′-oxo-5′,6′,8′,9′-tetrahydrospiro[cyclopropane-1,7′-pyrimido[4,5-b][1,4]diazepin]-2′-yl)amino)-N-(1-(3-(4-(2-(2,6-dioxopiperidin-3-yl)-1,3-dioxoisoindolin-4-yl)piperazin-1-yl)propanoyl)piperidin-4-yl)-3-methoxybenzamide] | < 0.05 | > 10 | +++ (+++: <0.3) |
| COc1cc(C(=O)NC2CCN(C(=O)CCN3CCN(c4cccc5c4C(=O)N(C4CCC(=O)NC4=O)C5=O)CC3)CC2)ccc1Nc1ncc2c(n1)N(C1CCCC1)CC(C)(C)C(=O)N2C (stereo not drawn) [Compound 121, 4-((9-cyclopentyl-5,7,7-trimethyl-6-oxo-6,7,8,9-tetrahydro-5H-pyrimido[4,5-b][1,4]diazepin-2-yl)amino)-N-(1-(3-(4-(2-(2,6-dioxopiperidin-3-yl)-1,3-dioxoisoindolin-4-yl)piperazin-1-yl)propanoyl)piperidin-4-yl)-3-methoxybenzamide] | < 0.2 | > 10 | ++ (++<0.6) |
| COc1cc(C(=O)NC2CCCN(C(=O)CCN3CCN(c4cccc5c4C(=O)N(C4CCC(=O)NC4=O)C5=O)CC3)C2)ccc1Nc1ncc2c(n1)N(C1CCCC1)CC(F)(F)C(=O)N2C (stereo not drawn) [Compound 123, 4-((9-cyclopentyl-7,7-difluoro-5-methyl-6-oxo-6,7,8,9-tetrahydro-5H-pyrimido[4,5-b][1,4]diazepin-2-yl)amino)-N-(1-(3-(4-(2-(2,6-dioxopiperidin-3-yl)-1,3-dioxoisoindolin-4-yl)piperazin-1-yl)propanoyl)piperidin-3-yl)-3-methoxybenzamide] | < 0.1 | > 10 | ++ (++<0.6) |
| COc1cc(C(=O)NN2CCC(CN3CCN(c4cccc5c4C(=O)N(C4CCC(=O)NC4=O)C5=O)CC3)CC2)ccc1Nc1ncc2c(n1)N(C1CCCC1)CC(F)(F)C(=O)N2C (stereo not drawn) [Compound 124, 4-((9-cyclopentyl-7,7-difluoro-5-methyl-6-oxo-6,7,8,9-tetrahydro-5H-pyrimido[4,5-b][1,4]diazepin-2-yl)amino)-N-(4-((4-(2-(2,6-dioxopiperidin-3-yl)-1,3-dioxoisoindolin-4-yl)piperazin-1-yl)methyl)piperidin-1-yl)-3-methoxybenzamide] | < 0.03 | > 10 | ++ (++<0.6) |
| COc1cc(C(=O)N[C@H]2CC[C@@H](N(C)CCN3CCN(c4cccc5c4C(=O)N(C4CCC(=O)NC4=O)C5=O)CC3)CC2)ccc1Nc1ncc2c(n1)N(C1CCCC1)CC(F)(F)C(=O)N2C (stereo partly drawn) [Compound 128, 4-((9-cyclopentyl-7,7-difluoro-5-methyl-6-oxo-6,7,8,9-tetrahydro-5H-pyrimido[4,5-b][1,4]diazepin-2-yl)amino)-N-((1s,4s)-4-((2-(4-(2-(2,6-dioxopiperidin-3-yl)-1,3-dioxoisoindolin-4-yl)piperazin-1-yl)ethyl)(methyl)amino)cyclohexyl)-3-methoxybenzamide] | < 0.05 | 18.8 | ++ (++<0.6) |
| COc1cc(C(=O)N[C@H]2CC[C@H](N(C)CCN3CCN(c4cccc5c4C(=O)N(C4CCC(=O)NC4=O)C5=O)CC3)CC2)ccc1Nc1ncc2c(n1)N(C1CCCC1)CC(F)(F)C(=O)N2C (stereo partly drawn) [Compound 129, 4-((9-cyclopentyl-7,7-difluoro-5-methyl-6-oxo-6,7,8,9-tetrahydro-5H-pyrimido[4,5-b][1,4]diazepin-2-yl)amino)-N-((1r,4r)-4-((2-(4-(2-(2,6-dioxopiperidin-3-yl)-1,3-dioxoisoindolin-4-yl)piperazin-1-yl)ethyl)(methyl)amino)cyclohexyl)-3-methoxybenzamide] | < 0.03 | 17.3 | +++ (+++: <0.3) |
| COc1cc(C(=O)NC2CCN(C(=O)CCN3CCN(c4ccc5c(c4)CN(C4CCC(=O)NC4=O)C5=O)CC3)CC2)ccc1Nc1ncc2c(n1)N(C(C)C)CC(F)(F)C(=O)N2C (stereo not drawn) [Compound 130, 4-((7,7-difluoro-9-isopropyl-5-methyl-6-oxo-6,7,8,9-tetrahydro-5H-pyrimido[4,5-b][1,4]diazepin-2-yl)amino)-N-(1-(3-(4-(2-(2,6-dioxopiperidin-3-yl)-1-oxoisoindolin-5-yl)piperazin-1-yl)propanoyl)piperidin-4-yl)-3-methoxybenzamide] | < 0.03 | > 10 | ++ (++<0.6) |
| COc1cc(C(=O)N[C@H]2CC[C@H](N3CCN(c4cccc5c4C(=O)N(C4CCC(=O)NC4=O)C5=O)CC3)CC2)ccc1Nc1ncc2c(n1)N(C1CCCC1)CC(F)(F)C(=O)N2C (stereo partly drawn) [Compound 131, 4-((9-cyclopentyl-7,7-difluoro-5-methyl-6-oxo-6,7,8,9-tetrahydro-5H-pyrimido[4,5-b][1,4]diazepin-2-yl)amino)-N-((1r,4r)-4-(4-(2-(2,6-dioxopiperidin-3-yl)-1,3-dioxoisoindolin-4-yl)piperazin-1-yl)cyclohexyl)-3-methoxybenzamide] | < 0.05 | > 10 | ++ (++<0.6) |
| COc1cc(C(=O)NC2CCN(C(=O)CCN3CCN(c4cccc5c4CN(C4CCC(=O)NC4=O)C5=O)CC3)CC2)ccc1Nc1ncc2c(n1)N(C(C)C)CC(F)(F)C(=O)N2C (stereo not drawn) [Compound 133, 4-((7,7-difluoro-9-isopropyl-5-methyl-6-oxo-6,7,8,9-tetrahydro-5H-pyrimido[4,5-b][1,4]diazepin-2-yl)amino)-N-(1-(3-(4-(2-(2,6-dioxopiperidin-3-yl)-1-oxoisoindolin-4-yl)piperazin-1-yl)propanoyl)piperidin-4-yl)-3-methoxybenzamide] | < 0.05 | > 10 | ++ (++<0.6) |
| COc1cc(C(=O)NC2CC3(CCN(CC4CCN(c5cccc6c5C(=O)N(C5CCC(=O)NC5=O)C6=O)CC4)CC3)C2)ccc1Nc1ncc2c(n1)N(C1CCCC1)CC(F)(F)C(=O)N2C (stereo not drawn) [Compound 136, 4-((9-cyclopentyl-7,7-difluoro-5-methyl-6-oxo-6,7,8,9-tetrahydro-5H-pyrimido[4,5-b][1,4]diazepin-2-yl)amino)-N-(7-((1-(2-(2,6-dioxopiperidin-3-yl)-1,3-dioxoisoindolin-4-yl)piperidin-4-yl)methyl)-7-azaspiro[3.5]nonan-2-yl)-3-methoxybenzamide] | < 0.03 | 6.52 | +++ (+++: <0.3) |
| COc1cc(C(=O)NC2CC3(CCN(CC4CCN(c5ccc6c(c5)C(=O)N(C5CCC(=O)NC5=O)C6=O)CC4)CC3)C2)ccc1Nc1ncc2c(n1)N(C1CCCC1)CC(F)(F)C(=O)N2C (stereo not drawn) [Compound 137, 4-((9-cyclopentyl-7,7-difluoro-5-methyl-6-oxo-6,7,8,9-tetrahydro-5H-pyrimido[4,5-b][1,4]diazepin-2-yl)amino)-N-(7-((1-(2-(2,6-dioxopiperidin-3-yl)-1,3-dioxoisoindolin-5-yl)piperidin-4-yl)methyl)-7-azaspiro[3.5]nonan-2-yl)-3-methoxybenzamide] | < 0.03 | 16.9 | ++ (++<0.6) |
| COc1cc(C(=O)NC2CN(CC3CCN(c4cccc5c4C(=O)N(C4CCC(=O)NC4=O)C5=O)CC3)C2)ccc1Nc1ncc2c(n1)N(C1CCCC1)CC(F)(F)C(=O)N2C (stereo not drawn) [Compound 138, 4-((9-cyclopentyl-7,7-difluoro-5-methyl-6-oxo-6,7,8,9-tetrahydro-5H-pyrimido[4,5-b][1,4]diazepin-2-yl)amino)-N-(1-((1-(2-(2,6-dioxopiperidin-3-yl)-1,3-dioxoisoindolin-4-yl)piperidin-4-yl)methyl)azetidin-3-yl)-3-methoxybenzamide] | < 0.05 | > 10 | ++ (++<0.6) |
